Test results published in patent US12606520B2, “Calpain-2 inhibitor compounds and methods of treatment” (WESTERN UNIVERSITY OF HEALTH SCIENCES, priority 2020, dated 2026).
Like-named read-outs stand apart in the source and are kept apart here.

Assays:
calpain-2 = biological target: T1, calpain-2 (Mus musculus, UniProt O08529); assay: Calpain-2 activity in calpain-1 KO mouse cerebellar homogenate (2 mM Ca2+), Suc-Leu-Tyr-AMC cleavage; type: biochemical; set-up: Calpain-2 activity=calpain activity under 2000 uM Ca^2+ in calpain-1 KO mice; from tissue; host or cells: calpain-1 knock-out mouse cerebellar (P2) homogenate
T1 sequence (O08529 1-700): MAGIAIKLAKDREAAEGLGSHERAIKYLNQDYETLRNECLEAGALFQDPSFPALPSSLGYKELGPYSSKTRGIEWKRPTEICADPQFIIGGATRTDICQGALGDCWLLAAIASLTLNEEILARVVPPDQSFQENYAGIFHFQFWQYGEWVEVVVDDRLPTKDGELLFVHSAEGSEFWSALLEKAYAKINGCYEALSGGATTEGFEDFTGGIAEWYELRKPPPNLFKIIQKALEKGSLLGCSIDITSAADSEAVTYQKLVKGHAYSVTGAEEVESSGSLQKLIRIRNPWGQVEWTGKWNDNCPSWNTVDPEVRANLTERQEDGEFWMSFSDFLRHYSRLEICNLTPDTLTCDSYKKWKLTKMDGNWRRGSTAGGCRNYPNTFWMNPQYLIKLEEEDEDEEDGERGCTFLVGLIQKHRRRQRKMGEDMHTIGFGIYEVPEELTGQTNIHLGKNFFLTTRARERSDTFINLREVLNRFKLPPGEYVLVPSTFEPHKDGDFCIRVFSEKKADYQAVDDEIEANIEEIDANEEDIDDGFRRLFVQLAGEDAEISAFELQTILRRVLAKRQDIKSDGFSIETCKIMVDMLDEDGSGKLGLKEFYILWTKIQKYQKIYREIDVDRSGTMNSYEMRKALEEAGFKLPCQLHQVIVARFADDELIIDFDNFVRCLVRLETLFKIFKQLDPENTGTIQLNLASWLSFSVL
T1 sequence (O88456 1-268 partner): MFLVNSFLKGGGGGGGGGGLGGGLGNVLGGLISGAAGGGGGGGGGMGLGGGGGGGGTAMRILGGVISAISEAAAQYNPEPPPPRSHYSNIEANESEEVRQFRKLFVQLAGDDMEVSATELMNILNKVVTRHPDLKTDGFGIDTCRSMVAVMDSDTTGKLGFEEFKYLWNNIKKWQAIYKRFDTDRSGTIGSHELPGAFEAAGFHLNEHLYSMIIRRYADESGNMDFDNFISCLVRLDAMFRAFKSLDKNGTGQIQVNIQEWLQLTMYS
Protocol: Cerebellar homogenates from wild-type (WT) or calpain-1 Knock-out (KO) mice were incubated with 20 μM calcium to activate calpain-1 or with 2 mM calcium to activate calpain-2, respectively, and increasing concentrations of NA112 (12). Calpain activity was measured by the cleavage of Succinyl-Leu-Tyr-7-amino-4-methylcoumarin (Suc-Leu-Tyr-AMC), resulting in increased fluorescence. Activity is normalized to the value measured in the presence of vehicle (DMSO).
WT or calpain-1 KO mouse cerebellar P2 homogenate (crude synaptosomal fraction) were used for measuring inhibitory activity of compounds against the mouse endogenous calpain-1/-2. Each reaction contains 100 ul of WT or calpain-1 KO mouse cerebellar P2 homogenate+0, 20 or 2000 uM Ca^2++0-10,000 nM NA184.
Calpain-2 activity=calpain activity under 2000 uM Ca^2+ in calpain-1 KO mice

[1] = PK in mice after iv injection of liposomal NA112: plasma; type: in vivo; conditions: for concentration at 0.0167 hr / concentration at 0.0833 hr / concentration at 0.25 hr / concentration at 0.5 hr / concentration at 1 hr / concentration at 2 hr / concentration at 4 hr / concentration at 8 hr / concentration at 16 hr / concentration at 24 hr: iv, 10 mg/kg, mice iv 10 mg/kg liposomes
Protocol: NA112 was prepared in liposomes at a concentration of 1.5 mg/ml. Mice were injected in the tail vein with 200 μl of NA112 in liposomes (corresponding to a dose of 10 mg/kg) and were sacrificed at the following time-points: 1, 5, 15, 30 min, 1, 2, 4, 8, 16 and 24 h. Blood was collected and plasma rapidly prepared by centrifugation. Brains were also collected. NA112 in plasma and in brain homogenates was assayed with LC/Ms and the sensitivity of the assay was 1 ng/ml. Experiments were performed in duplicate (A1 and A2 in Table 3). Results were averaged for preparing the figure and calculating the half-life of NA112 in plasma and in brain.
A two-compartment model was used to analyze the data from FIG. 14. This assumes that there is a rapid distribution of the drug from the plasma to various organs, followed by a slower elimination of the drug form the plasma. […] In FIG. 16, changes in NA112 plasma concentrations fitted with the 2-compartment model. The data from FIG. 14 are fitted with the 2-compartment model equation, showing the very good fit between the predicted values and the observed values.

[2] = 2-compartmental model, mice iv 10 mg/kg in liposomes
[3] = mouse, read-out: Plasma concentration A1
[4] = mouse, read-out: Plasma concentration A2
[5] = mouse, read-out: Plasma concentration Mean

CCC(NC(=O)[C@H](CC(C)C)NC(=O)NCc1ccccc1)C(=O)C(=O)NCc1cc(OC)cc(OC)c1 (mixture of isomers) [NA112, (2S)-2-(3-benzylureido)-N-(1-((3,5-dimethoxybenzyl)amino)-1,2-dioxopentan-3-yl)-4-methylpentanamide]
IC50 (calpain-2; read-out: IC50, 2000 μM Ca^2+ (calpain-1 KO), calpain-1 KO mouse cerebellar homogenate, 2 mM calcium): 106 nM | A [1, 2]: 28944.68 ng/mL | B [1, 2]: 42.70 ng/mL | T½α [1, 2]: 0.23 h | T½β [1, 2]: 7.80 h | α [1, 2]: 3.01 h⁻¹ | β [1, 2]: 0.09 h⁻¹ | half-life ([1]; mouse, 2-compartment model, mice iv 10 mg/kg in liposomes): 7.8 h | AUC from zero to infinity ([1]; mouse, 2-compartmental model, mice iv 10 mg/kg in liposomes, read-out: AUC0-00): 17000 ng·h/mL | concentration at 0.0167 hr [1, 3]: 45300 ng/mL | concentration at 0.0167 hr [1, 4]: 63500 ng/mL | concentration at 0.0167 hr [1, 5]: 54400 ng/mL | concentration at 0.0833 hr [1, 3]: 116000 ng/mL | concentration at 0.0833 hr [1, 4]: 69100 ng/mL | concentration at 0.0833 hr [1, 5]: 92300 ng/mL | concentration at 0.25 hr [1, 3]: 2120 ng/mL | concentration at 0.25 hr [1, 4]: 939 ng/mL | concentration at 0.25 hr [1, 5]: 1530 ng/mL | concentration at 0.5 hr [1, 3]: 6760 ng/mL | concentration at 0.5 hr [1, 4]: 432 ng/mL | concentration at 0.5 hr [1, 5]: 3590 ng/mL | concentration at 1 hr [1, 3]: 5550 ng/mL | concentration at 1 hr [1, 4]: 390 ng/mL | concentration at 1 hr [1, 5]: 2970 ng/mL | concentration at 2 hr [1, 3]: 107 ng/mL | concentration at 2 hr [1, 4]: 84 ng/mL | concentration at 2 hr [1, 5]: 95.5 ng/mL | concentration at 4 hr [1, 3]: 34.6 ng/mL | concentration at 4 hr [1, 4]: 30 ng/mL | concentration at 4 hr [1, 5]: 32.3 ng/mL | concentration at 8 hr [1, 3]: 17.4 ng/mL | concentration at 8 hr [1, 4]: 20.6 ng/mL | concentration at 8 hr [1, 5]: 19 ng/mL | concentration at 16 hr [1, 3]: 10.8 ng/mL | concentration at 16 hr [1, 4]: 9.79 ng/mL | concentration at 16 hr [1, 5]: 10.3 ng/mL | concentration at 24 hr [1, 3]: 5.63 ng/mL | concentration at 24 hr [1, 4]: 4.67 ng/mL | concentration at 24 hr [1, 5]: 5.15 ng/mL

CCC(NC(=O)[C@H](CC(C)C)NC(=O)NCc1ccccc1)C(=O)C(=O)NCc1cccc(Cl)c1OC (stereo partly drawn) [NA184, (2S)-2-(3-benzylureido)-N-(1-((3-chloro-2-methoxybenzyl)amino)-1,2-dioxopentan-3-yl)-4-methylpentanamide]
Ratio (IC50 calpain-1/calpain-2) (calpain-2; mouse cerebellar P2 homogenate): 21
